From patent US6048712A, “Process for producing α-monoglucosyl hesperidin-rich substance” (Kabushiki Kaisha Hayashibara, priority 1997, dated 2000)

Columns and labels:
[1] = cited from earlier work
[2] = cited from earlier work; remark: listed apart in the source
[3] = Dissolution and crystallization behaviour in lower alcohols; type: physicochemical; conditions: heated lower alcohols, then cooled below ambient temperature, for example 15-25° C.

In the case of `COc1ccc([C@@H]2CC(=O)c3c(O)cc(O[C@@H]4O[C@H](CO[C@@H]5O[C@@H](C)[C@H](O)[C@@H](O)[C@H]5O)[C@@H](O)[C@H](O)[C@H]4O)cc3O2)cc1O` [Hesperidin], the solubility in water ([1]; ambient temperature, about one gram in 50 1 water) is given as “about 0.002 w/v %” and the solubility in words ([1]; aqueous alkaline solutions, water and acids) is given as “dissolves in aqueous alkaline solutions but not substantially in water and acids”.

In the case of `COc1ccc([C@@H]2CC(=O)c3c(O)cc(O)cc3O2)cc1O` [hesperetin, 3',5,7-trihydroxy-4'-metoxyflavanone], the water solubility [2] is listed as “substantially water-insoluble”.

In the case of `COc1ccc(C2CC(=O)c3c(O)cc(O[C@@H]4O[C@H](CO[C@@H]5O[C@@H](C)[C@H](O)[C@@H](O)[C@H]5O)[C@@H](O[C@H]5O[C@H](CO)[C@@H](O)[C@H](O)[C@H]5O)[C@H](O)[C@H]4O)cc3O2)cc1O` (stereo partly drawn) [α-monoglucosyl hesperidin], the “solubility and crystallization in lower alcohols” value [3] was “easily dissolves in heated lower alcohols but easily crystallizes therein when the alcohols are cooled down to temperatures below ambient temperature”.

For `COc1ccc(C2CC(=O)c3c(O)cc(O[C@@H]4O[C@H](CO)[C@@H](O)[C@H](O)[C@H]4O)cc3O2)cc1O` (stereo partly drawn) [β-monoglucosyl hesperetin, 7-O-β-monoglucosyl hesperetin], the “solubility and crystallization in lower alcohols” value [3] was “easily dissolves in lower alcohols and does not substantially crystallize even when the alcohols are cooled down to temperatures below ambient temperature”.
